Results as given in patent US20090270342A1, “IMMUNOREGULATORY AGENT” (priority 2006, published 2009).

Columns and labels:
spleen cells = test: Cytokine production by spleen cells of OVA-sensitized mice restimulated with OVA (Experiment 6); format: in vivo
Method: In order to investigate the effect of lactosucrose on systemic immunity, the ability for producing cytokines of spleen cells was measured. At two weeks after the second sensitization in Experiment 4, spleens were removed from the mice of the control group and the group administrated with lactosucrose and the spleen cells were adjusted to give a cell concentration of 1×10^7/ml, and then placed in a 24-well plate. At two days or four days after adding 50 μg/ml of OVA, the amounts of IFN-γ, interleukin-2 (IL-2), IL-4, interleukin-5 (IL-5), and IL-10 in the culture supernatant were determined by conventional EIAs using antibodies (commercialized by BD-Pharmingen) corresponding to those. The percentages in parentheses in Table 9 mean relative values to the concentrations of respective cytokines produced by spleen cells from the control mice.

Peyer's patch cells = test: Production of IgA, IgG and cytokines by Peyer's patch cells of mice fed lactosucrose (Experiment 3); format: in vivo; conditions: for IFN-γ produced by Peyer's patch cells / IL-4 produced by Peyer's patch cells / IL-6 produced by Peyer's patch cells / IgA produced by Peyer's patch cells / IgG produced by Peyer's patch cells / TGF-β produced by Peyer's patch cells / IL-10 produced by Peyer's patch cells: four weeks
Method: In order to investigate what type of immunopathologically-mediated tissue exerts the enhancing effect on gut immunity, the amounts of IgA, IgG, and various cytokines were measured. Similarly as in Experiment 1, female BALB/c mice (six weeks old) were preliminary reared for one week on “AIN-93G”, the same standard purified diet as used in Experiment 1. Successively, “LS-90P”, a saccharide composition comprising 91.8% (w/w), on a dry solid basis, of lactosucrose commercialized by ENSUIKO Sugar Refining Co., Ltd., Tokyo, Japan, was incorporated into the above purified diet, in which corn starch equal to the amount of the saccharide composition comprising lactosucrose had been removed, to give a lactosucrose content of 2% (w/w) or 5% (w/w), and five mice/group were allowed to ingest the resulting test diet freely. Mice, allowed to ingest “AIN-93G”, as the standard purified diet, were used as control. At four weeks after starting the administration of the test diet, Peyer's patch and intestinal lymph nodes were respectively removed from the mice and cut using a scissor. Then, the resultants were respectively treated in 0.2% (w/v) aqueous collagenase solution at 37° C. for 30 min, and filtrated using a cell strainer to obtain cell suspensions. Each cell suspension was centrifuged to collect cells and the resulting cells were suspended into a 45% (v/v) solution of “PERCOLL”, commercialized by GE Healthcare, to make into a cell suspension. Each resulting suspension was successively placed on a 75% (v/v) “PERCOLL” solution and centrifuged at 1,000×g for 10 min. Cells in a boundary phase between 45% (v/v) and 75% (v/v) “PERCOLL” solution were collected and suspended in RPMI1640 medium comprising 10% FCS and 10 mM HEPES, and the cell concentration was adjusted to 1×10^6 cells/ml. The resulting cell suspension was placed in a 24-well plate to give one ml/well each. Then, 2 μg/ml of Concanavaline A (Con A) as a stimulator to T-cell or 10 μg/ml of lipopolysaccharide (LPS) as a stimulator to B-cell and macrophage cell was admixed with the cell suspension, and then the cells were cultured at 37° C. for 48 hours using 5% (v/v) carbon dioxide gas. A culture supernatant was collected from each well, and the amounts of IgA, IgG, IFN-γ, interleukin-4 (IL-4), IL-6, interleukin-10 (IL-10), and TGF-β were measured by ELISA using an anti-mouse IgA antibody, anti-mouse IgG antibody, anti-mouse IFN-γ antibody (commercialized by Pepro Tech EC. Ltd.), anti-mouse IL-4 antibody (commercialized by R&D Systems), anti-mouse IL-6 antibody (commercialized by R&D Systems), anti-mouse IL-10 antibody (commercialized by R&D Systems), and anti-mouse TGF-β antibody (commercialized by Promega Co., Wisconsin, USA), and the average values of those from five mice were determined. The results for Peyer's patch cells and intestinal lymph node cells are respectively in Tables 3 and 4. The percentages in parentheses in the tables mean a relative value to the amount of IgA, IgG, IFN-γ, IL-4, IL-6, IL-10 or TGF-β produced by Peyer's patch cells or intestinal lymph node cells from the control mice.

[1] = Lactosucrose 5% (w/w) diet, 2 days after adding 50 μg/ml OVA
[2] = Lactosucrose 5% (w/w) diet, 4 days after adding 50 μg/ml OVA
[3] = Lactosucrose 5% (w/w), 2 days after
[4] = Lactosucrose 5% (w/w), 4 days after
[5] = Lactosucrose 2% (w/w) diet, Con A
[6] = Lactosucrose 2% (w/w) diet, LPS
[7] = Lactosucrose 5% (w/w) diet, Con A
[8] = Lactosucrose 5% (w/w) diet, LPS

Structure (SMILES): OC[C@H]1O[C@@H](O[C@H]2[C@H](O)[C@@H](O)[C@@H](O[C@]3(CO)O[C@H](CO)[C@@H](O)[C@@H]3O)O[C@@H]2CO)[C@H](O)[C@@H](O)[C@H]1O [Lactosucrose, β-D-galactosyl-(1,4)-α-D-glucosyl-(1,2)-β-D-fructoside]
- IFN-γ produced by spleen cells (spleen cells; [1]): 1.1 ± 0.19 IU/ml
- IL-2 produced by spleen cells (spleen cells; [1]): 290 ± 160 pg/mL
- IL-4 produced by spleen cells (spleen cells; [1]): 32 ± 10 pg/mL
- IL-10 produced by spleen cells (spleen cells; [1]): 0.83 ± 0.27 ng/mL
- IFN-γ produced by spleen cells (spleen cells; [2]): 2.9 ± 0.91 IU/ml
- IL-4 produced by spleen cells (spleen cells; [2]): 62 ± 31 pg/mL
- IL-5 produced by spleen cells (spleen cells; [2]): 1.3 ± 0.32 ng/mL
- IL-10 produced by spleen cells (spleen cells; [2]): 2.7 ± 0.32 ng/mL
- IFN-γ produced by spleen cells, relative value to control (spleen cells; [3]): (113%)
- IL-2 produced by spleen cells, relative value to control (spleen cells; [3]): (78%)
- IL-4 produced by spleen cells, relative value to control (spleen cells; [3]): (107%)
- IL-10 produced by spleen cells, relative value to control (spleen cells; [3]): (126%)
- IFN-γ produced by spleen cells, relative value to control (spleen cells; [4]): (88%)
- IL-4 produced by spleen cells, relative value to control (spleen cells; [4]): (63%)
- IL-5 produced by spleen cells, relative value to control (spleen cells; [4]): (81%)
- IL-10 produced by spleen cells, relative value to control (spleen cells; [4]): (123%)
- IFN-γ produced by Peyer's patch cells (Peyer's patch cells; [5]): 11 ± 5.0 ng/mL
- IL-4 produced by Peyer's patch cells (Peyer's patch cells; [5]): 22 ± 0.58 pg/mL
- IL-6 produced by Peyer's patch cells (Peyer's patch cells; [5]): 35 ± 14 pg/mL
- IgA produced by Peyer's patch cells (Peyer's patch cells; [5]): 1.9 ± 0.49 µg/mL
- IgG produced by Peyer's patch cells (Peyer's patch cells; [5]): 110 ± 28 ng/mL
- TGF-β produced by Peyer's patch cells (Peyer's patch cells; [5]): 0.40 ± 0.24 ng/mL
- IL-10 produced by Peyer's patch cells (Peyer's patch cells; Lactosucrose 2% (w/w) diet, Con A, DL: Detection limit): Below DL*
- IFN-γ produced by Peyer's patch cells (Peyer's patch cells; [6]): 1.2 ± 0.44 ng/mL
- IL-4 produced by Peyer's patch cells (Peyer's patch cells; [6]): 15 ± 1.6 pg/mL
- IL-6 produced by Peyer's patch cells (Peyer's patch cells; [6]): 250 ± 27 pg/mL
- IL-10 produced by Peyer's patch cells (Peyer's patch cells; [6]): 200 ± 57 pg/mL
- IgA produced by Peyer's patch cells (Peyer's patch cells; [6]): 1.9 ± 1.8 µg/mL
- IgG produced by Peyer's patch cells (Peyer's patch cells; [6]): 110 ± 90 ng/mL
- TGF-β produced by Peyer's patch cells (Peyer's patch cells; [6]): 1.3 ± 0.20 ng/mL
- IFN-γ produced by Peyer's patch cells, relative value to control (Peyer's patch cells; Lactosucrose 2% (w/w), Con A): (100%)
- IL-4 produced by Peyer's patch cells, relative value to control (Peyer's patch cells; Lactosucrose 2% (w/w), Con A): (105%)
- IL-6 produced by Peyer's patch cells, relative value to control (Peyer's patch cells; Lactosucrose 2% (w/w), Con A): (106%)
- IgA produced by Peyer's patch cells, relative value to control (Peyer's patch cells; Lactosucrose 2% (w/w), Con A): (127%)
- IgG produced by Peyer's patch cells, relative value to control (Peyer's patch cells; Lactosucrose 2% (w/w), Con A): (151%)
- TGF-β produced by Peyer's patch cells, relative value to control (Peyer's patch cells; Lactosucrose 2% (w/w), Con A): (133%)
- IFN-γ produced by Peyer's patch cells, relative value to control (Peyer's patch cells; Lactosucrose 2% (w/w), LPS): (146%)
- IL-4 produced by Peyer's patch cells, relative value to control (Peyer's patch cells; Lactosucrose 2% (w/w), LPS): (107%)
- IL-6 produced by Peyer's patch cells, relative value to control (Peyer's patch cells; Lactosucrose 2% (w/w), LPS): (114%)
- IL-10 produced by Peyer's patch cells, relative value to control (Peyer's patch cells; Lactosucrose 2% (w/w), LPS): (95%)
- IgA produced by Peyer's patch cells, relative value to control (Peyer's patch cells; Lactosucrose 2% (w/w), LPS): (216%)
- IgG produced by Peyer's patch cells, relative value to control (Peyer's patch cells; Lactosucrose 2% (w/w), LPS): (244%)
- TGF-β produced by Peyer's patch cells, relative value to control (Peyer's patch cells; Lactosucrose 2% (w/w), LPS): (100%)
- IFN-γ produced by Peyer's patch cells (Peyer's patch cells; [7]): 21 ± 13 ng/mL
- IL-4 produced by Peyer's patch cells (Peyer's patch cells; [7]): 20 ± 0.74 pg/mL
- IL-6 produced by Peyer's patch cells (Peyer's patch cells; [7]): 84 ± 39 pg/mL
- IgA produced by Peyer's patch cells (Peyer's patch cells; [7]): 4.5 ± 2.6 µg/mL
- IgG produced by Peyer's patch cells (Peyer's patch cells; [7]): 270 ± 120 ng/mL
- TGF-β produced by Peyer's patch cells (Peyer's patch cells; [7]): 0.66 ± 0.13 ng/mL
- IL-10 produced by Peyer's patch cells (Peyer's patch cells; Lactosucrose 5% (w/w) diet, Con A, DL: Detection limit): Below DL*
- IFN-γ produced by Peyer's patch cells (Peyer's patch cells; [8]): 3.0 ± 2.1 ng/mL
- IL-4 produced by Peyer's patch cells (Peyer's patch cells; [8]): 14 ± 0.88 pg/mL
- IL-6 produced by Peyer's patch cells (Peyer's patch cells; [8]): 470 ± 250 pg/mL
- IL-10 produced by Peyer's patch cells (Peyer's patch cells; [8]): 160 ± 56 pg/mL
- IgA produced by Peyer's patch cells (Peyer's patch cells; [8]): 7.0 ± 4.0 µg/mL
- IgG produced by Peyer's patch cells (Peyer's patch cells; [8]): 370 ± 150 ng/mL
- TGF-β produced by Peyer's patch cells (Peyer's patch cells; [8]): 1.2 ± 0.090 ng/mL
- IFN-γ produced by Peyer's patch cells, relative value to control (Peyer's patch cells; Lactosucrose 5% (w/w), Con A): (191%)
- IL-4 produced by Peyer's patch cells, relative value to control (Peyer's patch cells; Lactosucrose 5% (w/w), Con A): (95%)
- IL-6 produced by Peyer's patch cells, relative value to control (Peyer's patch cells; Lactosucrose 5% (w/w), Con A): (255%)
- IgA produced by Peyer's patch cells, relative value to control (Peyer's patch cells; Lactosucrose 5% (w/w), Con A): (300%)
- IgG produced by Peyer's patch cells, relative value to control (Peyer's patch cells; Lactosucrose 5% (w/w), Con A): (370%)
- TGF-β produced by Peyer's patch cells, relative value to control (Peyer's patch cells; Lactosucrose 5% (w/w), Con A): (220%)
- IFN-γ produced by Peyer's patch cells, relative value to control (Peyer's patch cells; Lactosucrose 5% (w/w), LPS): (366%)
- IL-4 produced by Peyer's patch cells, relative value to control (Peyer's patch cells; Lactosucrose 5% (w/w), LPS): (100%)
- IL-6 produced by Peyer's patch cells, relative value to control (Peyer's patch cells; Lactosucrose 5% (w/w), LPS): (214%)
- IL-10 produced by Peyer's patch cells, relative value to control (Peyer's patch cells; Lactosucrose 5% (w/w), LPS): (76%)
- IgA produced by Peyer's patch cells, relative value to control (Peyer's patch cells; Lactosucrose 5% (w/w), LPS): (795%)
- IgG produced by Peyer's patch cells, relative value to control (Peyer's patch cells; Lactosucrose 5% (w/w), LPS): (822%)
- TGF-β produced by Peyer's patch cells, relative value to control (Peyer's patch cells; Lactosucrose 5% (w/w), LPS): (92%)
